{"source": "patent US9271936B2", "about": "“Method for forming mesoporous silica nanoparticles, mesoporous silica nanoparticles, and applications thereof” (UNIVERSITY OF MARYLAND, priority 2008, dated 2016)", "key": {"[1]": {"assay": "Loading (uptake) of target material into MSN, UV-Vis spectroscopy", "assay_type": "physicochemical"}, "[2]": {"settings": "cited from earlier work"}, "[3]": {"assay": "Release of target material from MSN, UV-Vis spectroscopy", "settings": "after subsequent pH decrease to approximately pH 5.0"}}, "data": [{"smiles": "COc1cccc2c1C(=O)c1c(O)c3c(c(O)c1C2=O)C[C@@](O)(C(=O)CO)C[C@@H]3O[C@H]1C[C@H](N)[C@H](O)[C@H](C)O1", "note": "[doxorubicin]", "values": [{"measurement": "uptake into MSN", "setting": "[1]", "result": "approximately 3 ug/mg MSN"}, {"measurement": "pKa", "setting": "[2]", "result": "~7"}, {"measurement": "amount released per mg of MSN at equilibrium", "setting": "[3]", "result": "about 7.5 ug per mg of MSN"}]}]}
